Experimental findings from ChEMBL document CHEMBL4043200, “Synthesis and biological evaluation of 8-aryl-2-morpholino-7-O-substituted benzo[e][1,3]oxazin-4-ones against DNA-PK, PI3K, PDE3A enzymes and platelet aggregation” (Bioorg Med Chem, 2017) are described below.

Experiment [1] deals with DNA-dependent protein kinase catalytic subunit (Homo sapiens, UniProt P78527). Description: Inhibition of human DNA-PK catalytic subunit at 10 uM using DNA and [EPPLSQEAFADLWKK] peptide substrate by HTRF assay. (In general: Time-resolved FRET reads energy transfer from a long-lived donor to a nearby acceptor.)
Experiment [2] deals with cGMP-inhibited 3',5'-cyclic phosphodiesterase 3A (Homo sapiens, UniProt Q14432). Description: Inhibition of human PDE3A at 10 uM by HTRF assay.
Experiment [3] has as its target Phosphatidylinositol 4,5-bisphosphate 3-kinase catalytic subunit beta isoform (Homo sapiens) (UniProt P42338). Description: Inhibition of wild type PI3K-beta (unknown origin) assessed as decrease in ATP consumption at 10 uM using phosphotidylinositol bisphosphate and ATP measured after 60 mins by Kinase-Glo reagent based luminescence assay. (Kinase-Glo reads ATP consumption through a luciferase reaction.)

Experiment [4] addresses T1, Phosphatidylinositol 4,5-bisphosphate 3-kinase catalytic subunit delta isoform (Homo sapiens) (UniProt O00329).
T1 sequence (whole entry): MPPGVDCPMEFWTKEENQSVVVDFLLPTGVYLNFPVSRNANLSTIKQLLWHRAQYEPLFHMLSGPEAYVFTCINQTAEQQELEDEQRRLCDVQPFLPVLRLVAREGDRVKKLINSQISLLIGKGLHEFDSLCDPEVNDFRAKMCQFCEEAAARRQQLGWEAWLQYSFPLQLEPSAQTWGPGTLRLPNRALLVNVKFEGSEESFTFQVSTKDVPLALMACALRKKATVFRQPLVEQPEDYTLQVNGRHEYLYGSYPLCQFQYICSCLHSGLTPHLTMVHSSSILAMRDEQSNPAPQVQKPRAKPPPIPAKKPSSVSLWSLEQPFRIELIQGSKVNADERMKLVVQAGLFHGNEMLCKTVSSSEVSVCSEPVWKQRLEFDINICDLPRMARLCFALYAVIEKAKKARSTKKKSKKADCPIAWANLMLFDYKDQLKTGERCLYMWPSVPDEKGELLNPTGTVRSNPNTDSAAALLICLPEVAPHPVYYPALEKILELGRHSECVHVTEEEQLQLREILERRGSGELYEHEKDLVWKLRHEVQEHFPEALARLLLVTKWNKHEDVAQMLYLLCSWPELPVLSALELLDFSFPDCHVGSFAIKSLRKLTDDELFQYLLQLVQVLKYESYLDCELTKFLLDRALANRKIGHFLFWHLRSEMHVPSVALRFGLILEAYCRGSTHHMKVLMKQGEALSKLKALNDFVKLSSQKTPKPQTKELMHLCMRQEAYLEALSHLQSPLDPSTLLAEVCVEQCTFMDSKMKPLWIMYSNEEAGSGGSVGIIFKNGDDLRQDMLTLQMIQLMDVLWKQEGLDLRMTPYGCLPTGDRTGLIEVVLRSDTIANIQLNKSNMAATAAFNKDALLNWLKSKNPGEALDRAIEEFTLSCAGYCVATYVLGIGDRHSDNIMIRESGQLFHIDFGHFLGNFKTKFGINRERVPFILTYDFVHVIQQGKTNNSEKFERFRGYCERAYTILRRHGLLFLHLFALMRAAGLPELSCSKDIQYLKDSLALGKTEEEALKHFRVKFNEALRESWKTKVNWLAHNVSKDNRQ
Description: Inhibition of wild type PI3K-delta (unknown origin) assessed as decrease in ATP consumption at 10 uM using phosphotidylinositol bisphosphate and ATP measured after 60 mins by Kinase-Glo reagent based luminescence assay.

Experiment [5] has as its target Phosphatidylinositol 4,5-bisphosphate 3-kinase catalytic subunit alpha isoform (Homo sapiens) (UniProt P42336). Description: Inhibition of wild type PI3K-alpha (unknown origin) assessed as decrease in ATP consumption at 10 uM using phosphotidylinositol bisphosphate and ATP measured after 60 mins by Kinase-Glo reagent based luminescence assay.
In experiment [6] the target is Phosphatidylinositol 4,5-bisphosphate 3-kinase catalytic subunit gamma isoform (Homo sapiens) (UniProt P48736). Description: Inhibition of wild type PI3K-gamma (unknown origin) assessed as decrease in ATP consumption at 10 uM using phosphotidylinositol bisphosphate and ATP measured after 60 mins by Kinase-Glo reagent based luminescence assay.
For experiment [7], the target named is T2, Phosphatidylinositol 4,5-bisphosphate 3-kinase catalytic subunit delta isoform (Homo sapiens, UniProt O00329).
T2 sequence (O00329 whole entry): T1 sequence (whole entry)
Description: Inhibition of wild type PI3K-delta (unknown origin) assessed as decrease in ATP consumption using phosphotidylinositol bisphosphate and ATP measured after 60 mins by Kinase-Glo reagent based luminescence assay.

pIC50: −log10 of the molar value.

Sequence of Phosphatidylinositol 4,5-bisphosphate 3-kinase catalytic subunit alpha isoform (Homo sapiens) (P42336 whole entry, canonical isoform): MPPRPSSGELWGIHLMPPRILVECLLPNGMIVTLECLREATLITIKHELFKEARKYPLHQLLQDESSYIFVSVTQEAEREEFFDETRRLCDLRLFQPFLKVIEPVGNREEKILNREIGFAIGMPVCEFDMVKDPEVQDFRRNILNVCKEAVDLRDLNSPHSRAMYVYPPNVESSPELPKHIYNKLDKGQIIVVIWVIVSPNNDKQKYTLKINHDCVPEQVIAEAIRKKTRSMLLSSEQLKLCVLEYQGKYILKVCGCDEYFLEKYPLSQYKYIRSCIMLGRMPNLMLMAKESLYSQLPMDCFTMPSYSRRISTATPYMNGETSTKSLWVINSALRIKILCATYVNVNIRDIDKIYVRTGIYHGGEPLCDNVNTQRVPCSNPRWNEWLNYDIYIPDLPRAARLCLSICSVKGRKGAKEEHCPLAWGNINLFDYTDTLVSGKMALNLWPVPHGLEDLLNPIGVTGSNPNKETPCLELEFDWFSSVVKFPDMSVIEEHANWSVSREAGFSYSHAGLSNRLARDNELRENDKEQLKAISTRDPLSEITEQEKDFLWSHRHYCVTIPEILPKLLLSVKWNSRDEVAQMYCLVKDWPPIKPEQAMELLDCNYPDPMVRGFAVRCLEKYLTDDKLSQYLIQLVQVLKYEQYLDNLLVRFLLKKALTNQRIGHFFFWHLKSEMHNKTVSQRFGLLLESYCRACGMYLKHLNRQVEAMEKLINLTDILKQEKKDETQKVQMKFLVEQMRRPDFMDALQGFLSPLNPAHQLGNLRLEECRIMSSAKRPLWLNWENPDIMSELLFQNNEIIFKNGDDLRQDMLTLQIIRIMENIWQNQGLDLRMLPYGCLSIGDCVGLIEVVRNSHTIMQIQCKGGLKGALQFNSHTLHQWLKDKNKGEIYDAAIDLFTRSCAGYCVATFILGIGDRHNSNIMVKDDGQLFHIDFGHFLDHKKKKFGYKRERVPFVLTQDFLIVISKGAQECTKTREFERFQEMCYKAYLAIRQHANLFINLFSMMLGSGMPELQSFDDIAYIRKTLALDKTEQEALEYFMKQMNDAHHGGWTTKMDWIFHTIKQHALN
Sequence of Phosphatidylinositol 4,5-bisphosphate 3-kinase catalytic subunit gamma isoform (Homo sapiens) (P48736 whole entry, looked up, canonical isoform): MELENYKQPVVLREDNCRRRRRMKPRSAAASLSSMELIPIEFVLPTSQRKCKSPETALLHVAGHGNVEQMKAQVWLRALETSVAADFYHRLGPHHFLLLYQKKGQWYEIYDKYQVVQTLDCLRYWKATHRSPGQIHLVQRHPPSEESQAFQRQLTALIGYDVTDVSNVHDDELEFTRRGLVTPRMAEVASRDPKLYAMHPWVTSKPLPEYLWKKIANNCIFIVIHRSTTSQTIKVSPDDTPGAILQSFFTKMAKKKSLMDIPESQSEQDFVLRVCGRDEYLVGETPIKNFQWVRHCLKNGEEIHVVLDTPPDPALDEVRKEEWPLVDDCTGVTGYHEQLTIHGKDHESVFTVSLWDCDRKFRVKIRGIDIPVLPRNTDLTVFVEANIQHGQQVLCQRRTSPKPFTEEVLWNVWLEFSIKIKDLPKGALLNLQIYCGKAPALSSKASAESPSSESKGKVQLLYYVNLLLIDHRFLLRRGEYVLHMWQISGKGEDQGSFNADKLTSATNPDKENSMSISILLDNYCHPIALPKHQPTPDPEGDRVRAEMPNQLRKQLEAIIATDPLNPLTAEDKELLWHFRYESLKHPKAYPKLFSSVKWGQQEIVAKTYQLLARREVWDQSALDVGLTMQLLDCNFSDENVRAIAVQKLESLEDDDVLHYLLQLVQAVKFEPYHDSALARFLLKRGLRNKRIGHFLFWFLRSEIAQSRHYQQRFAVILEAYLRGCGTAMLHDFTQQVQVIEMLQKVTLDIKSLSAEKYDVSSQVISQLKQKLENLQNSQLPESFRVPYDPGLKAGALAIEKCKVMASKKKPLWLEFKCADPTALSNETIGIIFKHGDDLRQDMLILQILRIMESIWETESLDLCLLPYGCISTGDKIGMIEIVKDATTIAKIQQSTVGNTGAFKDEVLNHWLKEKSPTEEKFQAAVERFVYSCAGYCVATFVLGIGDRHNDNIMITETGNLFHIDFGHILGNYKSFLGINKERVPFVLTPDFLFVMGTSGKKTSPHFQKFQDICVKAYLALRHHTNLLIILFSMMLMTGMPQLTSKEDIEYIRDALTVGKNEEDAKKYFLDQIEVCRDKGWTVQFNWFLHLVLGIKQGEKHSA
Sequence of Phosphatidylinositol 4,5-bisphosphate 3-kinase catalytic subunit beta isoform (Homo sapiens) (P42338 whole entry, looked up, canonical isoform): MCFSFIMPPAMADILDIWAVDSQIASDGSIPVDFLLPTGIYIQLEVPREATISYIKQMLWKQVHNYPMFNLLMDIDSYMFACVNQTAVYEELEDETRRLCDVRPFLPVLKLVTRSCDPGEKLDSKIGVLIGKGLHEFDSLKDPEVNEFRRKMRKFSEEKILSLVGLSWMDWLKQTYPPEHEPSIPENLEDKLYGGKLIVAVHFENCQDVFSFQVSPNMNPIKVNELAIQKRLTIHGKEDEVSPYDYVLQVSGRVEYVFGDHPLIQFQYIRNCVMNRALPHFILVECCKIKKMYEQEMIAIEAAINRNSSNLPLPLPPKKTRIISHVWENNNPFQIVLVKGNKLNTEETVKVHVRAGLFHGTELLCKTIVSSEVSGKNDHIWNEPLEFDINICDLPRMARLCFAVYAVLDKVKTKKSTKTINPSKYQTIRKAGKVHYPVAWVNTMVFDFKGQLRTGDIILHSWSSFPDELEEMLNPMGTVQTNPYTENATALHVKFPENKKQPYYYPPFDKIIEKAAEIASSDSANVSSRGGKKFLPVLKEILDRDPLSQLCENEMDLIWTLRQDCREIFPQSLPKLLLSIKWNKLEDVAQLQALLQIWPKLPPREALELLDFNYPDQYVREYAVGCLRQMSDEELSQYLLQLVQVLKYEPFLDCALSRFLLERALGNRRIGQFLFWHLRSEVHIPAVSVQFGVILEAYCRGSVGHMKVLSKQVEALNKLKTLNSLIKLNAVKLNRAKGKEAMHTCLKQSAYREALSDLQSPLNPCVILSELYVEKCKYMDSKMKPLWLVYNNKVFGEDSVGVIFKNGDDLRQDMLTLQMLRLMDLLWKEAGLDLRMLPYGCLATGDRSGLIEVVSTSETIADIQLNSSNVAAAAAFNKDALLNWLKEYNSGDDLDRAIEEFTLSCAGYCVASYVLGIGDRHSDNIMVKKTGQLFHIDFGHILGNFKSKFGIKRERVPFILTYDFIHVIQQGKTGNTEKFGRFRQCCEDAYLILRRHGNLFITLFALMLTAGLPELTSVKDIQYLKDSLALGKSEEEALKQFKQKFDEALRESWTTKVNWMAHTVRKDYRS
Sequence of cGMP-inhibited 3',5'-cyclic phosphodiesterase 3A (Q14432 whole entry, canonical isoform): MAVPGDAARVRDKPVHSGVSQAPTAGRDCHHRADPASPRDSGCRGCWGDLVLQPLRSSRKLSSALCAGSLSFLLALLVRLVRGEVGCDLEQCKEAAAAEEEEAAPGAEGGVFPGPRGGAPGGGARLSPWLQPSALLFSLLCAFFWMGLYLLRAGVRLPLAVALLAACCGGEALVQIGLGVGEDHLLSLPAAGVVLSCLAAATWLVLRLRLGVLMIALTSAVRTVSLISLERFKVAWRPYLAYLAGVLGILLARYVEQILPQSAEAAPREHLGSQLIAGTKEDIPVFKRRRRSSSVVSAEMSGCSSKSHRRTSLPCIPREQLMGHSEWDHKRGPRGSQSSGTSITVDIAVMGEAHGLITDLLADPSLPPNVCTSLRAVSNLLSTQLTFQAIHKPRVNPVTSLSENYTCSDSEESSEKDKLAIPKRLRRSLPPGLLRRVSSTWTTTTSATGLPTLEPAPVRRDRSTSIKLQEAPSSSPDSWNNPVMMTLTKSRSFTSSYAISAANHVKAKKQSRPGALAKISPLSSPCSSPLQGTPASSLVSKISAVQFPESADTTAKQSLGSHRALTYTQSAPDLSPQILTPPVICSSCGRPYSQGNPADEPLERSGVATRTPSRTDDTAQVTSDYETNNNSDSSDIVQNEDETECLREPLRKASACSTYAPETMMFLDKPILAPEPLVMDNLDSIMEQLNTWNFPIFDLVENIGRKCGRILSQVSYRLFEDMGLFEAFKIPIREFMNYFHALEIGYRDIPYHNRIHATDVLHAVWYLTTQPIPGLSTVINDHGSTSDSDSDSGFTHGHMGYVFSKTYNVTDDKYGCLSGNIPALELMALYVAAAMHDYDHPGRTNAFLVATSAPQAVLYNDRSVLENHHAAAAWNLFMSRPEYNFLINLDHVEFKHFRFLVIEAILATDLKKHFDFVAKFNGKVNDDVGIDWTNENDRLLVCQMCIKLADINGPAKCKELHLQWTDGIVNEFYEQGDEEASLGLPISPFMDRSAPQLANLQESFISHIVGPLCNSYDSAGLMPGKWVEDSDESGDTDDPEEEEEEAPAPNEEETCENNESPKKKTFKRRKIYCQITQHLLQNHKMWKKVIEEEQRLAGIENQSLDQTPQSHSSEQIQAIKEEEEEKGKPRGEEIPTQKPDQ

For the compound `O=c1nc(N2CCOCC2)oc2c(-c3cccc4c3Sc3ccccc3S4)c(OCc3ccccc3)ccc12`, the inhibition (in general, the drop in the measured response relative to a control, in per cent) is -1.7% in experiment [1], 27.3% in experiment [2], 0.6% in experiment [3] and -1% in experiment [4].

`O=c1nc(N2CCOCC2)oc2c(-c3ccc(Cl)cc3)c(OCCBr)ccc12`: the inhibition was 31% in experiment [1]; 11.3% in experiment [2]; -6.1% in experiment [5]; 7.6% in experiment [3]; 53.6% in experiment [4].

Consider `O=c1nc(N2CCOCC2)oc2c(-c3cccc4ccccc34)c(OCc3ccccc3)ccc12`, for which the inhibition in experiment [1] was 4.07%; in experiment [2], 51.3%; in experiment [3], 4.67%; in experiment [4], 9.5%.

In the case of `O=c1nc(N2CCOCC2)oc2c(-c3cccc4c3sc3ccccc34)c(OCc3ccccc3)ccc12`, the inhibition in experiment [1] stood at 64.4%; in experiment [2], 31.2%; in experiment [3], 15.1%; in experiment [4], 6.3%.

Take `O=c1nc(N2CCOCC2)oc2c(-c3ccsc3)c(OCc3ccccc3)ccc12`: the inhibition in experiment [1] was 46.6%; in experiment [2], 38.8%; in experiment [5] it was 4.8%; in experiment [3], 20.6%; in experiment [4], 39.5%.

In the case of `Nc1cccc(-c2c(OCc3cccnc3)ccc3c(=O)nc(N4CCOCC4)oc23)c1`, the inhibition was 9.8% in experiment [1]; 18.4% in experiment [5]; 28.2% in experiment [3]; -6.9% in experiment [6]; 41.9% in experiment [4].

As to `O=c1nc(N2CCOCC2)oc2c(-c3cccnc3)c(OCc3ccccc3)ccc12`, the inhibition in experiment [1] was 17.2%; in experiment [2] it was 46.9%; in experiment [5] it was -1.7%; in experiment [3] it was 21%; in experiment [6], -2.3%; in experiment [4] it was 34.5%.

Take `O=c1nc(N2CCOCC2)oc2c(-c3cc4ccccc4s3)c(OCc3ccncc3)ccc12`: the inhibition in experiment [1] was determined as 8.7%; in experiment [2], 51.6%; in experiment [6], 0.2%; in experiment [4], 27.2%.

In the case of `O=c1nc(N2CCOCC2)oc2c(-c3cccs3)c(OCc3ccccc3)ccc12`, the inhibition in experiment [1] is 46.1%; in experiment [2], 59.9%; in experiment [5], -9.9%; in experiment [6] it was -3.5%; in experiment [4] it was 9.2%.

Turning to `O=c1nc(N2CCOCC2)oc2c(-c3cccc4c3oc3ccccc34)c(OCc3ccccc3)ccc12`, the inhibition in experiment [1] was 41.5%; in experiment [2], 62.9%; in experiment [6], -4.1%; in experiment [4], -2.9%.

For `O=c1nc(N2CCOCC2)oc2c(-c3ccccc3)c(OCCBr)ccc12`, the inhibition in experiment [1] was 31.1%; in experiment [2], 24%; in experiment [5], 40.7%; in experiment [3], 33.8%; in experiment [6] it was -6.4%; in experiment [4], 75.9%.

`Nc1cccc(-c2c(OCc3ccncc3)ccc3c(=O)nc(N4CCOCC4)oc23)c1`: the inhibition was 10.1% in experiment [1]; 43.6% in experiment [2]; -5.5% in experiment [3]; -5.5% in experiment [6]; 9.7% in experiment [4].

`Nc1cccc(-c2c(OCc3ccccn3)ccc3c(=O)nc(N4CCOCC4)oc23)c1`: the inhibition in experiment [1] was found to be 7.3%; in experiment [2], 20%; in experiment [5] it was 16.2%; in experiment [3], 65.5%; in experiment [6] it was 6.4%; in experiment [4], 47.6%.

Take `COc1ccc(-c2c(OCc3ccncc3)ccc3c(=O)nc(N4CCOCC4)oc23)cc1`: the inhibition in experiment [1] amounted to 33.6%; in experiment [2], 33.5%; in experiment [5], 36.2%; in experiment [3], 53.8%; in experiment [4], 96.3%. In addition, the pIC50 (in general, the negative decadic logarithm of the IC50, by convention in mol/L) in experiment [7] is 5.54.

As to `CN1CCN(CCOc2ccc3c(=O)nc(N4CCOCC4)oc3c2-c2ccc(Cl)cc2)CC1`, the inhibition in experiment [1] stood at 11.6%; in experiment [2] it was 21.8%; in experiment [5] it was 12.7%; in experiment [3], 20.3%; in experiment [6] it was 1.4%; in experiment [4], 49.4%.

On to `COc1ccc(-c2c(OCc3ccccc3)ccc3c(=O)nc(N4CCOCC4)oc23)cc1`, for which the inhibition in experiment [1] was 40%; in experiment [2], 2.8%; in experiment [5], 0.6%; in experiment [3], 19.8%; in experiment [6], -0.5%; in experiment [4], 65.7%.

Turning to `O=c1nc(N2CCOCC2)oc2c(-c3cccs3)c(OCc3cccnc3)ccc12`, the inhibition in experiment [1] turned out to be 38.1%; in experiment [2], 61.8%; in experiment [5], 3.3%; in experiment [3], 5.3%; in experiment [6], 1.7%; in experiment [4] it was 20.7%.

As to `O=c1nc(N2CCOCC2)oc2c(-c3ccsc3)c(OCc3ccncc3)ccc12`, the inhibition in experiment [1] was determined as 32.8%; in experiment [2], 55.3%; in experiment [5], 21.4%; in experiment [3], 53.6%; in experiment [6], 7.7%; in experiment [4], 72.2%.

Regarding `O=c1nc(N2CCOCC2)oc2c(-c3ccsc3)c(OCc3cccnc3)ccc12`, the inhibition is 44% in experiment [1]; 61.9% in experiment [2]; -3.3% in experiment [5]; 0.3% in experiment [3]; 3.8% in experiment [6]; 16.6% in experiment [4].

Turning to `O=c1nc(N2CCOCC2)oc2c(-c3cc4ccccc4s3)c(OCc3ccccc3)ccc12`, the inhibition in experiment [2] was 58.1%; in experiment [5], -7.3%; in experiment [3] it was 0.4%; in experiment [6], -7.1%; in experiment [4], 1.1%.

With `O=c1nc(N2CCOCC2)oc2c(-c3ccccc3)c(OCc3ccccc3)ccc12`, the inhibition in experiment [1] worked out at 13.6%; in experiment [2], 24%; in experiment [5], 21.3%; in experiment [3] it was 29.8%; in experiment [6] it was 5.4%; in experiment [4], 58.7%.

Consider `O=c1nc(N2CCOCC2)oc2c(-c3ccc(Cl)cc3)c(OCc3ccccc3)ccc12`, for which the inhibition in experiment [1] was 25.7%; in experiment [2], 31.4%; in experiment [5], 0.2%; in experiment [3], 11%; in experiment [6], 9.8%; in experiment [4] it was 27.4%.

`Nc1cccc(-c2c(OCc3ccccc3)ccc3c(=O)nc(N4CCOCC4)oc23)c1`: the inhibition in experiment [1] came to 9.1%; in experiment [2] it was 5.1%; in experiment [5], 31.6%; in experiment [3], 63.1%; in experiment [6], 19.8%; in experiment [4], 63.4%.

With `O=c1nc(N2CCOCC2)oc2c(-c3ccc(CO)cc3)c(OCc3ccccc3)ccc12`, the inhibition in experiment [1] was found to be 36%; in experiment [2], 18.9%; in experiment [5], 39.1%; in experiment [3] it was 54.2%; in experiment [4], 84.7%. Further, in experiment [7], the pIC50 was 5.51.

On to `O=c1nc(N2CCOCC2)oc2c(-c3cccs3)c(OCc3ccncc3)ccc12`, for which the inhibition in experiment [1] is 39.2%; in experiment [2] it was 55.3%; in experiment [5] it was -2.9%; in experiment [3], 5.4%; in experiment [6] it was -1.5%; in experiment [4], 24%.
